Measured values taken from patent US8575188B2 (priority 2009, dated 2013).
Like-named read-outs stand apart in the source and are kept apart here.

Key:
[1] = system: human ovarian cancer cell line IGROV-1; assay: Antiproliferation assay, 72 hrs under air, Alamar Blue; assay type: cell-based
[2] = system: human melanoma cell line A375; assay: as above; assay type: cell-based
[3] = system: human prostate cancer cell line LNCap; assay: as above; assay type: cell-based
[4] = system: human melanoma cell line SKMEL2; assay: as above; assay type: cell-based
[5] = system: IGROV1 human ovarian cancer cells; assay: Xenograft model of metastatic ovarian cancer (i.p.), survival
Description: One arm was dosed with only vehicle and the results used for the efficacy calculations. […] A xenograft model of metastatic ovarian cancer was set up by the intraperitoneal (i.p) injection of 3×10^6 IGROV1 human ovarian cancer cells in nude mice. Mice were evaluated twice a week for morbidity and mortality. Kaplan-Meier survival curves were plotted.

[6] = system: human non small cell lung cancer cell line H460; assay: Antiproliferation (cytotoxicity) assay, 72 hrs under air, Alamar Blue; assay type: cell-based; conditions: read-out: IC50
[7] = system: MRP1 over expressing H69AR line; assay: Efflux pump drug resistance, antiproliferation assay, MRP1 over expressing line; assay type: cell-based; conditions: Homo sapiens, air
Description: (§1) The compounds were screened for cytotoxicity using human non small cell lung cancer cell line H460. […]
(§2) Cellular drug resistance was determined using the antiproliferation assay described above.

[8] = system: DX5, which over expresses the MDR 1 efflux pump; assay: Efflux pump drug resistance, antiproliferation assay, MDR 1 over expressing line; assay type: cell-based; conditions: air
Description: as §1, §2

[9] = system: human prostate cancer cell line PC-3; assay: Antiproliferation assay, 72 hrs under air, Alamar Blue; assay type: cell-based; conditions: read-out: PC3 IC50
human colon cancer HT-29 = assay: Xenograft model, subcutaneous, tumor growth inhibition and body weight loss; conditions: for Max. BWL (%): mouse, in vivo, po
Description: (§3) The first three models were produced by subcutaneous implantation of the appropriate number of cells into the flank of the animals. When tumor size was approximately 150 mm^3, animals were randomized into groups of 10 mice each for dosing. One arm was dosed with only vehicle and the results used for the efficacy calculations. […] TGI=(1−T/C) %. T/C ratio was calculated as T/C=(Tn−Ti)/(Cn−Ci), where Tn is tumor volume in treatment group on Day n, and Ti is the initial tumor volume in the treatment group. Cn is the tumor volume of the vehicle group on the last day of measurement. Ci is the initial tumor volume in the vehicle control group. Day n is the last measurement taken when all the animals in the vehicle group were not yet euthanized. Animals were euthanized when tumor volumes grew larger than 2000 mm^3.

[10] = system: human non small cell lung cancer H-460; assay: as above
Description: as §3

[11] = system: human melanoma cell line SKMEL-28; assay: Antiproliferation assay, 72 hrs under air, Alamar Blue; assay type: cell-based
[12] = system: mouse melanoma cell line B-16-F10; assay: as above; assay type: cell-based; conditions: B16-F10
[13] = system: BCRP, which over expressed the breast cancer resistance protein; assay: Efflux pump drug resistance, antiproliferation assay, BCRP over expressing line
Description: as §1, §2

[14] = system: human colon cancer cell line HT-29; assay: Antiproliferation assay, 72 hrs under air, Alamar Blue; assay type: cell-based
[15] = system: Messa ovarian carcinoma cell line; assay: Efflux pump drug resistance, antiproliferation assay, parent line; assay type: cell-based; conditions: air
Description: […] Cells were treated with test compounds at various concentrations under air for 72 hrs, and then cell viability and proliferation were assessed by Alamar Blue staining.
as §2

pcDNA = assay: as above; assay type: cell-based; conditions: air
Description: as §1, §2

[16] = system: H69 small cell lung cancer line; assay: as above; assay type: cell-based; conditions: air
Description: as §1, §2

[17] = system: human melanoma cell line MAMLE-3M; assay: Antiproliferation assay, 72 hrs under air, Alamar Blue; assay type: cell-based
[18] = In vivo pharmacokinetics, oral gavage; conditions: CD, mouse, in vivo, po, 50 mg/kg
Description: The data normalized to a 50 mg/kg dose are shown below (compounds were dosed at either 25 or 50 mg/kg).

[19] = Bone marrow progenitor cell clonogenic assay (CFU-GM), human; conditions: human
Description: (§4) A clonogenic assay was performed using bone marrow progenitor cells derived from the blood of mice and humans.

[20] = system: bone marrow progenitor cells; assay: as above; conditions: read-out: Human CFU-GM (IC50 nM) THLD
Description: as §4

[21] = system: human prostate cancer cell line DU145; assay: Antiproliferation assay, 72 hrs under air, Alamar Blue; assay type: cell-based
[22] = Bone marrow progenitor cell clonogenic assay (CFU-GM), mouse; conditions: mouse
Description: as §4

[23] = system: bone marrow progenitor cells; assay: as above; conditions: read-out: Mouse CFU-GM (IC50 nM) THLD
Description: as §4

H46O cells = assay: Selective hypoxic activation of 14-nitro prodrugs in cell culture; assay type: cell-based, human; conditions: TH1431 at 1 micromolar, 24 hr
Description: H46O cells were grown to a confluent monolayer and then the 14-nitro TH1332 prodrug was added to the media at 5 micromolar concentration. Incubations were done for 24 hour either under air or nitrogen (hypoxia), media and cells were recovered, sonicated and soluble extracts were isolated by acetonitrile precipitation of proteins. The level of amino TH1338 active cytotoxin were quantitated by liquid chromotagraphy mass spectra analysis. The equivalent of 70 nanomolar TH1338 was produced under hypoxia with undetectable levels being produced under air (less than 5 nanomolar).
The analogous experiment was preformed using 1 micromolar concentration of the 14-nitro derivative TH1431. After 24 hr, 180 nanomolar of the 14 amino TH1499 was produced under nitrogen with undetectable levels produced under air (less than 5 nanomolar).

[24] = Brain penetration, AUC in brain versus AUC plasma; conditions: mouse
Description: Certain compounds of the invention were assessed for brain penetration by comparing the AUC for plasma exposure versus the AUC in brain.

[25] = stated as known for topotecan; cited from earlier work
[26] = system: human prostate cancer PC-3; assay: Xenograft model, subcutaneous, tumor growth inhibition and body weight loss; conditions: PC3, PO, QD × 5/wk, 2 weeks, 2 mg/Kg
Description: as §3

[27] = Homo sapiens, NCI-H460, H460, inhibition of proliferation, 72 hrs under air
[28] = 72 h, 3 days, read-out: Air 3d H69ar (MRP1) prol. IC50
[29] = Homo sapiens, HT-29, read-out: HT29 IC50
[30] = Homo sapiens, MES-SA, 72 h, 3 days, read-out: Air 3d MESSA prol. IC50
[31] = 72 h, 3 days, read-out: Air 3d pcDNA prol. IC50
[32] = 72 h, 3 days, read-out: Air 3d H69 prol. IC50
[33] = HT29, PO, QD × 5/wk, 4 weeks, 2 mg/Kg
[34] = H460, PO, QD × 5/wk, 2 weeks, 2 mg/Kg

CC[C@@]1(O)C(=O)OCc2c1c(N)c1n(c2=O)Cc2c-1nc1ccccc1c2C [TH1339]
IC50 ([1]; Homo sapiens, IGROV-1): 10 nM
IC50 ([2]; Homo sapiens, A-375): 3 nM
IC50 ([3]; Homo sapiens, LNCaP): 23 nM
IC50 ([4]; Homo sapiens, SK-MEL-2, read-out: SKMEL-2 IC50): 50 nM
T/C ([5]; IGROV1 i.p., median survival treated / vehicle times 100, PO, QD × 5/wk, 4 weeks, 20 mg/Kg): 280
IC50 [6, 27]: 1.8 nM
IC50 [7, 28]: 28 nM
IC50 ([8]; MDR1, 72 h, 3 days, read-out: Air 3d DX5 prol. IC50): 6.7 nM
IC50 ([9]; Homo sapiens): 9 nM
TGI (%) (human colon cancer HT-29; HT29, PO, QD × 5/wk, 2 weeks, 30 mg/Kg): 56.5%
Max. BWL (%) (human colon cancer HT-29; 30 mg/kg): 3%
TGI (%) ([10]; H460, PO, QD × 5/wk, 2 weeks, 15 mg/Kg): 46.1%
Max. BWL (%) ([10]; mouse, in vivo, po, 15 mg/kg): 0%
IC50 ([11]; Homo sapiens, SK-MEL-28): > 10000 nM
IC50 [12]: 690 nM
IC50 ([13]; 72 h, read-out: Air 3d BCRP prol. IC50 nM, air, 3 days): 2.1 nM
3d BCRP/pcDNA ([13]; ratio of IC50s, BCRP over expressing versus parent line, 3 days): 0.913
IC50 [14, 29]: 69 nM
IC50 [15, 30]: 8.5 nM
IC50 (pcDNA; [31]): 2.3 nM
IC50 [16, 32]: 13 nM
IC50 ([17]; Homo sapiens): 220 nM
AUC [18]: 405 ng·h/mL
Cmax [18]: 378 ng/mL
IC90 [19]: 100 nM
IC50 ([20]; Homo sapiens, CFU-GM): 10 nM
IC50 ([21]; Homo sapiens, DU-145): 2.5 nM
IC90 [22]: 2200 nM
IC50 ([23]; Mus musculus, CFU-GM): 560 nM

CC[C@@]1(O)C(=O)OCc2c1c([N+](=O)[O-])c1n(c2=O)Cc2c-1nc1ccccc1c2/C=N/OC(C)(C)C [TH1431]
TH1499 produced under air (H46O cells; air, undetectable levels): less than 5 nanomolar
14 amino TH1499 produced under nitrogen (H46O cells; nitrogen): 180 nM
Kp [24]: 0.12
IC50 [6, 27]: 800 nM
IC50 [7, 28]: > 10000 nM
IC50 ([7]; 120 h, 5 days, read-out: Air 5d H69ar (MRP1) prol. IC50): 838 nM
IC50 ([8]; MDR1, 120 h, 5 days, read-out: Air 5d DX5 prol. IC50): 515 nM
IC50 ([9]; Homo sapiens): 29 nM
TGI (%) (human colon cancer HT-29; HT29, PO, QD × 5/wk, 2 weeks, 25 mg/Kg): 34.6%
Max. BWL (%) (human colon cancer HT-29; 25 mg/kg): 1.6%
IC50 [12]: 720 nM
IC50 ([13]; 120 h, read-out: Air 5d BCRP prol. IC50 nM, air, 5 days): 78 nM
5d BCRP/pcDNA ([13]; ratio of IC50s, BCRP over expressing versus parent line, 5 days): 1.1642
IC50 [14, 29]: 288 nM
IC50 [15, 30]: 2690 nM
IC50 ([15]; Homo sapiens, MES-SA, 120 h, 5 days, read-out: Air 5d MESSA prol. IC50): 255 nM
IC50 ([15]; 3 days, read-out: Air 3d MESSA prol. IC50): 3300 nM
IC50 (pcDNA; [31]): 461 nM
IC50 (pcDNA; 120 h, 5 days, read-out: Air 5d pcDNA prol. IC50): 67 nM
IC50 (pcDNA; 3 days, read-out: Air 3d pcDNA prol. IC50): 900 nM
IC50 [16, 32]: 3790 nM
IC50 ([16]; 120 h, 5 days, read-out: Air 5d H69 prol. IC50): 354 nM
AUC [18]: 352 ng·h/mL
Cmax [18]: 348 ng/mL

CC[C@@]1(O)C(=O)OCc2c1cc1n(c2=O)Cc2cc3c(CN(C)C)c(O)ccc3nc2-1 [Topotecan, reference compound]
IC50 [1]: 160 nM
IC50 [2]: 13 nM
IC50 [3]: 9 nM
IC50 ([4]; read-out: SKMEL-2 IC50): 140 nM
brain levels in mice relative to plasma levels [25]: about 30%
T/C ([5]; mouse, in vivo, 2 mg/kg): 186
IC50 [6]: 45 nM
IC50 [9]: 45 nM
Max BWL (%) [26]: 1.3%
TGI (%) [26]: 79%
Max BWL (%) (human colon cancer HT-29; [33]): 0%
TGI (%) (human colon cancer HT-29; [33]): 70.3%
Max BWL (%) [10, 34]: 8.9%
TGI (%) [10, 34]: 46.1%
IC50 [11]: > 10000 nM
ratio BCRP over expressing line versus the parent cell line ([13]; not told): 51
IC50 ([14]; read-out: HT29 IC50): > 1000 nM
IC50 [17]: 1000 nM
IC50 [20]: 8 nM
IC50 [21]: 30 nM
IC50 [23]: 130 nM
